Results taken from patent US20250084056A1, “SUBSTITUTED OXOISOINDOLINYL PIPERIDINE-2,6-DIONE COMPOUNDS” (BRISTOL-MYERS SQUIBB COMPANY, priority 2023, published 2025).

Key:
Type in all cases: cell-based
Phospho-Rb (Ser807/811) = experiment: Phospho-Retinoblastoma (pRB) Cellular Assay; conditions: Homo sapiens, OVCAR-3, NIH OVCAR3 cells, 24 hours; for IC50: concentration giving 50% response; for Emax: maximum response, reference compound at 10 μM = 100%, read-out: pRB Ymax
Summary of the method: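 OVCAR3 cells seeded overnight, then dosed with serial dilutions for 24 h at 37° C. Lysed with kit mix plus phosphatase inhibitor, ≥4 h at room temperature, read on EnVision; 100% response set by reference compound at 10 μM, giving IC50 and Ymax.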

GSPT1 = GSPT1 (Homo sapiens, UniProt P15170+Q96SW2); experiment: GSPT1 Cellular Degradation Assay (DF15-GSPT1-ePL); set-up: expressed in transfected cells; conditions: DF15-GSPT1-ePL cells, 20 hours
Summary of the method: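 Human DF15 cells co-expressing a GSPT1–ePL fusion were treated with compound in RPMI 1640/10% FBS for 20 h at 37 °C. GSPT1 level was read by enzyme-fragment-complementation luminescence after 60 min with detection reagent. The reference degrader at […] defined 75% response; DC50 and Dmax were reported.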

Cyclin E1 = Cyclin E1 (Homo sapiens, UniProt P24864+Q96SW2); experiment: Cyclin E1 Cellular Degradation Assay (MSD); set-up: endogenous in cells; host or cells: OVCAR3; conditions: for DC50 / Dmax: Cyclin E1 cellular degradation; for Dmax: maximum degradation; for Ratio of GSPT1 DC50/Cyclin E1 DC50: selectivity for degradation of Cyclin E1 over GSPT1
Summary of the method: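 OVCAR3 cells treated with compound for 24 h at 37 °C, lysed, and cyclin E1 measured by MSD sandwich immunoassay (rabbit capture, mouse detection anti-CCNE1). Reference degrader at […] defined 110% response; DC50 and Dmax derived from response.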

Chain of GSPT1 (P15170 whole entry, the tested form may be a part): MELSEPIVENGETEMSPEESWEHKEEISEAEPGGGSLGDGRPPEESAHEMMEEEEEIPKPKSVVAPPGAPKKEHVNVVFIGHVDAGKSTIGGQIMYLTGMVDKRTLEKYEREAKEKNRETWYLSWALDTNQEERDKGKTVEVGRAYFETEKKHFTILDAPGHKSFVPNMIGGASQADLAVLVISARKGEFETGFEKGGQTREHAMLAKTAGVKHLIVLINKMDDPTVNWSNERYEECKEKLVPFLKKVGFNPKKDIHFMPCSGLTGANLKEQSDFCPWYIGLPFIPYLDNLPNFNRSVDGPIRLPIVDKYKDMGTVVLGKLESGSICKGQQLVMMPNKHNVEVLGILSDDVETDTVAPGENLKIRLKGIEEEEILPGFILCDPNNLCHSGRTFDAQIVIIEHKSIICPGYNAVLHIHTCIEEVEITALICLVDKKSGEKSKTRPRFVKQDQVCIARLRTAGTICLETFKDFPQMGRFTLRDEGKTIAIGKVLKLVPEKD
Chain of GSPT1 (Q96SW2 whole entry, the tested form may be a part): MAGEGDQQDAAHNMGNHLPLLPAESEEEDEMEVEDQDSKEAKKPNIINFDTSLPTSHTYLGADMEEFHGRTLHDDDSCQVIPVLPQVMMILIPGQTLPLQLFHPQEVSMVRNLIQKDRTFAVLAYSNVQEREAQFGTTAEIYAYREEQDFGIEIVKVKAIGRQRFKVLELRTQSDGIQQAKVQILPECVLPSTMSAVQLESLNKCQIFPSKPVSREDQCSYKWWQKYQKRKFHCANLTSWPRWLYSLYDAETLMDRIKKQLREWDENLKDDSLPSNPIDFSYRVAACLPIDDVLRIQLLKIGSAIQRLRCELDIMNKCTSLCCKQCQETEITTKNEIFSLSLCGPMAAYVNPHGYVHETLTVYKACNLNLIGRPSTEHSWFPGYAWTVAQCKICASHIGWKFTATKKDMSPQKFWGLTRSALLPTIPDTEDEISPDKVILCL
Chain of GSPT1 (Q16531 whole entry partner, the tested form may be a part): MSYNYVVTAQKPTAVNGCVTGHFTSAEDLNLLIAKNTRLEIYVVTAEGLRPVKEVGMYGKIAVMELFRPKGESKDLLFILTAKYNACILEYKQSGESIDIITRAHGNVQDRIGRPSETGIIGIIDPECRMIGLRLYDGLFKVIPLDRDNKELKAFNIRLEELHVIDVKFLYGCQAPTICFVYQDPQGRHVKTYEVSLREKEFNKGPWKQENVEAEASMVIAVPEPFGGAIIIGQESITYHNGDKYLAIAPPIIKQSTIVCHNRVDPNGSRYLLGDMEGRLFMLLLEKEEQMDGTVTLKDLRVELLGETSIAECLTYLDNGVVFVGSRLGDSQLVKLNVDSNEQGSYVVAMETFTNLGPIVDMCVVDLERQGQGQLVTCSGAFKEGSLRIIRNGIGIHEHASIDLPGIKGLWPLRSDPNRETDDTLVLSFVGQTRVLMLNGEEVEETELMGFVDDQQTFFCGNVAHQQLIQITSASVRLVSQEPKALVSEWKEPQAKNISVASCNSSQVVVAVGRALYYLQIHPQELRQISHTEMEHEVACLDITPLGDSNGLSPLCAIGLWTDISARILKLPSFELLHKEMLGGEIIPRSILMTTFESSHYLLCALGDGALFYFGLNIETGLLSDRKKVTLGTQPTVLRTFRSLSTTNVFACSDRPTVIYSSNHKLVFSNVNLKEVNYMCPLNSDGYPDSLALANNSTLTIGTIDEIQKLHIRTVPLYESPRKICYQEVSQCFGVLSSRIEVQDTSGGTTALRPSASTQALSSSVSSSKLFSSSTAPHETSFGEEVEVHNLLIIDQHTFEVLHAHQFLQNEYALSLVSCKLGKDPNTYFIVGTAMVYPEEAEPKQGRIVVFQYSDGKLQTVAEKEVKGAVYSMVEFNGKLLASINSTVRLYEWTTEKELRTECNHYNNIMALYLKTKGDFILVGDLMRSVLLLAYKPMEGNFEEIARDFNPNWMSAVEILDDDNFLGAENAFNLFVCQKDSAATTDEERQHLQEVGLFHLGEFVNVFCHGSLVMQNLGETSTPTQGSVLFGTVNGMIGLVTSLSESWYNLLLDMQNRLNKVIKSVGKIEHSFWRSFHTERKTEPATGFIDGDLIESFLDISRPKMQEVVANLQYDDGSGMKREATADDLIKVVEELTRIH
Chain of Cyclin E1 (P24864 whole entry): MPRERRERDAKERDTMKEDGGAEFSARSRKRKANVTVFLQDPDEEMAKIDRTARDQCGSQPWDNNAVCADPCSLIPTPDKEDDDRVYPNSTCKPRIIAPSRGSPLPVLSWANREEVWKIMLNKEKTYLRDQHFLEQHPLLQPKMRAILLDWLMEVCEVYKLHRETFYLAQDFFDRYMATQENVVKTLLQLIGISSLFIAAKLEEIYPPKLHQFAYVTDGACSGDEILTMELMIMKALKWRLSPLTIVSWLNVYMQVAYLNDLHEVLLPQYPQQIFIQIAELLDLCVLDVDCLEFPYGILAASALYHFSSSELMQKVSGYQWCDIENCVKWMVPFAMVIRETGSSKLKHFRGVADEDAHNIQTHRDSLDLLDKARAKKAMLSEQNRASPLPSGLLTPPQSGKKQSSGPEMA
Chain of Cyclin E1 (Q96SW2 whole entry): as the sequence (Q96SW2 whole entry, the tested form may be a part) above
Chain of Cyclin E1 (Q16531 whole entry partner): as the sequence (Q16531 whole entry partner, the tested form may be a part) above

IC50 (Phospho-Rb (Ser807/811)) [µM] | DC50 (GSPT1) [µM] | Dmax (GSPT1) [%] | DC50 (Cyclin E1) [µM] | Dmax (Cyclin E1) [%] | Ratio of GSPT1 DC50/Cyclin E1 DC50 (Cyclin E1) | Compound | Emax (Phospho-Rb (Ser807/811)) [%]
0.187 | > 14 | 37 | 0.184 | 107 | >76 | COc1c(COC(=O)Nc2ccc(Oc3cc(F)c(F)c(F)c3)cc2Cl)ccc2c1C(=O)N(C1CCC(=O)NC1=O)C2 (centres unmarked) [Example 25, [2-(2,6-dioxopiperidin-3-yl)-4-methoxy-3-oxo-2,3-dihydro-1H-isoindol-5-yl]methyl N-[2-chloro-4-(3,4,5-trifluorophenoxy)phenyl]carbamate] | 96
0.44 | > 14 | 11 | 0.096 | 101 | >146 | COc1c(COC(=O)Nc2ccc(Cc3cccc(F)c3)cc2F)ccc2c1C(=O)N(C1CCC(=O)NC1=O)C2 (centres unmarked) [Example 20, [2-(2,6-dioxopiperidin-3-yl)-4-methoxy-3-oxo-2,3-dihydro-1H-isoindol-5-yl]methyl N-{2-fluoro-4-[(3-fluorophenyl)methyl]phenyl}carbamate] | 103
0.063 | > 14 | 36 | 0.274 | 110 | >51 | COc1c(COC(=O)Nc2ccc(Oc3ccc(F)cc3C)cc2F)ccc2c1C(=O)N(C1CCC(=O)NC1=O)C2 (centres unmarked) [Example 95, [2-(2,6-dioxopiperidin-3-yl)-4-methoxy-3-oxo-2,3-dihydro-1H-isoindol-5-yl]methyl N-[2-fluoro-4-(4-fluoro-2-methylphenoxy)phenyl]carbamate] | 125
0.221 | > 14 | 22 | 0.118 | 109 | >118 | COc1c(COC(=O)Nc2ccc(Oc3ccc(F)c(C)c3)cc2F)ccc2c1C(=O)N(C1CCC(=O)NC1=O)C2 (centres unmarked) [Example 99, [2-(2,6-dioxopiperidin-3-yl)-4-methoxy-3-oxo-2,3-dihydro-1H-isoindol-5-yl]methyl N-[2-fluoro-4-(4-fluoro-3-methylphenoxy)phenyl]carbamate] | 114
0.127 | > 14 | 48 | 0.035 | 109 | >395 | COc1c(COC(=O)Nc2ccc(Oc3cc(F)c(F)c(F)c3)cc2F)ccc2c1C(=O)N(C1CCC(=O)NC1=O)C2 (centres unmarked) [Example 15, [2-(2,6-dioxopiperidin-3-yl)-4-methoxy-3-oxo-2,3-dihydro-1H-isoindol-5-yl]methyl N-[2-fluoro-4-(3,4,5-trifluorophenoxy)phenyl]carbamate] | 109

More lines, now with the values behind:

Compound | IC50 (Phospho-Rb (Ser807/811)) [µM] | DC50 (GSPT1) [µM] | Dmax (GSPT1) [%] | DC50 (Cyclin E1) [µM] | Dmax (Cyclin E1) [%] | Ratio of GSPT1 DC50/Cyclin E1 DC50 (Cyclin E1) | Emax (Phospho-Rb (Ser807/811)) [%]
COc1c(COC(=O)Nc2ccc(Cc3ccc(F)c(Cl)c3)cc2)ccc2c1C(=O)N(C1CCC(=O)NC1=O)C2 (centres unmarked) [Example 21, [2-(2,6-dioxopiperidin-3-yl)-4-methoxy-3-oxo-2,3-dihydro-1H-isoindol-5-yl]methyl N-{4-[(3-chloro-4-fluorophenyl)methyl]phenyl}carbamate] | 0.818 | > 14 | 14 | 0.04 | 101 | >353 | 92
O=C1CCC(N2Cc3ccc(COC(=O)Nc4ccc(Oc5ccccc5F)cc4)c(Oc4ccccc4)c3C2=O)C(=O)N1 (centres unmarked) [Example 65, [2-(2,6-dioxopiperidin-3-yl)-3-oxo-4-phenoxy-2,3-dihydro-1H-isoindol-5-yl]methyl N-[4-(2-fluorophenoxy)phenyl]carbamate] | 0.059 | > 14 | 0 | 0.164 | 101 | >85 | 127
COc1c(COC(=O)Nc2ccc(Oc3ccc(F)cc3Cl)cc2)ccc2c1C(=O)N(C1CCC(=O)NC1=O)C2 (centres unmarked) [Example 102, [2-(2,6-dioxopiperidin-3-yl)-4-methoxy-3-oxo-2,3-dihydro-1H-isoindol-5-yl]methyl N-[4-(2-chloro-4-fluorophenoxy)phenyl]carbamate] | 0.121 | > 14 | 35 | 0.059 | 108 | >236 | 120
COc1c(COC(=O)Nc2ccc(N(C)c3cccc(F)c3)cc2)ccc2c1C(=O)N(C1CCC(=O)NC1=O)C2 (centres unmarked) [Example 8, [2-(2,6-dioxopiperidin-3-yl)-4-methoxy-3-oxo-2,3-dihydro-1H-isoindol-5-yl]methyl N-{4-[(3-fluorophenyl)(methyl)amino]phenyl}carbamate] | 1.23 | > 14 | 15 | 0.353 | 104 | >40 | 99
CC(C)Oc1c(COC(=O)Nc2ccc(Oc3cccc(F)c3)cc2)ccc2c1C(=O)N(C1CCC(=O)NC1=O)C2 (centres unmarked) [Example 123, [2-(2,6-dioxopiperidin-3-yl)-3-oxo-4-(propan-2-yloxy)-2,3-dihydro-1H-isoindol-5-yl]methyl N-[4-(3-fluorophenoxy)phenyl]carbamate] | 0.11 | > 14 | 4 | 0.131 | 107 | >107 | 121
CC(C)(O)COc1c(COC(=O)Nc2ccc(Oc3ccccc3)cc2)ccc2c1C(=O)N(C1CCC(=O)NC1=O)C2 (centres unmarked) [Example 160, [2-(2,6-dioxopiperidin-3-yl)-4-(2-hydroxy-2-methylpropoxy)-3-oxo-2,3-dihydro-1H-isoindol-5-yl]methyl N-(4-phenoxyphenyl)carbamate] | 0.131 | > 14 | 16 | 0.023 | 98 | >615 | 145
COc1c(COC(=O)Nc2ccc(Oc3ccc(F)cc3F)cc2)ccc2c1C(=O)N(C1CCC(=O)NC1=O)C2 (centres unmarked) [Example 5, [2-(2,6-dioxopiperidin-3-yl)-4-methoxy-3-oxo-2,3-dihydro-1H-isoindol-5-yl]methyl N-[4-(2,4-difluorophenoxy)phenyl]carbamate] | 0.003 | > 14 | 33 | 0.299 | 118 | >47 | 131
COc1c(COC(=O)Nc2ccc(Oc3cccc(F)c3F)cc2)ccc2c1C(=O)N(C1CCC(=O)NC1=O)C2 (centres unmarked) [Example 110, [2-(2,6-dioxopiperidin-3-yl)-4-methoxy-3-oxo-2,3-dihydro-1H-isoindol-5-yl]methyl N-[4-(2,3-difluorophenoxy)phenyl]carbamate] | 0.072 | > 14 | 20 | 0.173 | 106 | >81 | 99
COc1c(COC(=O)Nc2ccc(Oc3ccccc3C)cc2)ccc2c1C(=O)N(C1CCC(=O)NC1=O)C2 (centres unmarked) [Example 101, [2-(2,6-dioxopiperidin-3-yl)-4-methoxy-3-oxo-2,3-dihydro-1H-isoindol-5-yl]methyl N-[4-(2-methylphenoxy)phenyl]carbamate] | 0.061 | > 14 | 18 | 0.072 | 108 | >194 | 111
O=C1CCC(N2Cc3ccc(COC(=O)Nc4ccc(Oc5ccc(F)c(F)c5)cc4)c(O[C@H]4CC[C@H](O)CC4)c3C2=O)C(=O)N1 (stereo partly drawn) [Example 166, [2-(2,6-dioxopiperidin-3-yl)-3-oxo-4-{[(1R,4R)-4-hydroxycyclohexyl]oxy}-2,3-dihydro-1H-isoindol-5-yl]methyl N-[4-(3,4-difluorophenoxy)phenyl]carbamate] | 0.095 | > 14 | 27 | 0.087 | 108 | >160 | 134
O=C1CCC(N2Cc3ccc(COC(=O)Nc4ccc(Oc5ccc(F)cc5F)cc4F)c(O[C@@H]4CCCOC4)c3C2=O)C(=O)N1 (stereo partly drawn) [Example 148, [2-(2,6-dioxopiperidin-3-yl)-4-[(3R)-oxan-3-yloxy]-3-oxo-2,3-dihydro-1H-isoindol-5-yl]methyl N-[4-(2,4-difluorophenoxy)-2-fluorophenyl]carbamate] | 0.075 | > 14 | 10 | 0.033 | 110 | >423 | 136
COc1c(COC(=O)Nc2ccc(Oc3ccc(F)cc3C(F)F)cc2)ccc2c1C(=O)N(C1CCC(=O)NC1=O)C2 (centres unmarked) [Example 89, [2-(2,6-dioxopiperidin-3-yl)-4-methoxy-3-oxo-2,3-dihydro-1H-isoindol-5-yl]methyl N-{4-[2-(difluoromethyl)-4-fluorophenoxy]phenyl}carbamate] | 0.159 | > 14 | 42 | 0.289 | 101 | >48 | 108
